Patent publication US10597388B2, “Pyridazinone herbicides” (FMC CORPORATION, priority 2014, dated 2020)

Legend:
Assay in all cases: Test D controlled growth environment herbicide test, pre- and postemergence
Assay type in all cases: in vivo
[1] = system: Russian thistle (Salsola kali)
Text: (§1) Seeds of plant species selected from bluegrass (annual bluegrass, Poa annua), blackgrass (Alopecurus myosuroides), Canada thistle (Cirsium arvense), canarygrass (Phalaris minor), chickweed (common chickweed, Stellaria media), geranium, cutleaf (cutleaf geranium, Geranium dissectum), galium (catchweed bedstraw, Galium aparine), bromegrass, downy (downy bromegrass, Bromus tectorum), field poppy (Papaver rhoeas), field violet (Viola arvensis), foxtail, green (green foxtail, Setaria viridis), deadnettle (henbit deadnettle, Lamium amplexicaule), ryegrass, Italian (Italian ryegrass, Lolium multiflorum), kochia (Kochia scoparia), lambsquarters (Chenopodium album), oilseed rape (Brassica napus), pigweed (Amaranthus retroflexus), chamomile (scentless chamomile, Matricaria inodora), Russian thistle (Salsola kali), speedwell (bird's-eye speedwell, Veronica persica), barley, spring (spring barley, Hordeum vulgare), wheat, spring (spring wheat, Triticum aestivum), buckwheat, wild (wild buckwheat, Polygonum convolvulus), mustard, wild (wild mustard, Sinapis arvensis), oat, wild (wild oat, Avena fatua), radish, wild (wild radish, Raphanus raphanistrum), windgrass (Apera spica-venti), barley, winter (winter barley, Hordeum vulgare), and wheat, winter (winter wheat, Triticum aestivum) were planted into a silt loam soil and treated preemergence with test chemicals formulated in a non-phytotoxic solvent mixture which included a surfactant.
(§2) At the same time, these species were planted in pots containing Redi-Earth® planting medium (Scotts Company, 14111 Scottslawn Road, Marysville, Ohio 43041) comprising spaghnum peat moss, vermiculite, wetting agent and starter nutrients and treated with postemergence applications of the test chemicals formulated in the same manner. Plants ranged in height from 2 to 18 cm (1- to 4-leaf stage). Treated plants and controls were maintained in a controlled growth environment for 14 to 21 d after which time all species were compared to controls and visually evaluated. Plant response ratings, summarized in Table D, are based on a scale of 0 to 100 where 0 is no effect and 100 is complete control. A dash (-) response means no test result.

[2] = system: barley, spring (spring barley, Hordeum vulgare)
Text: as §1, §2

[3] = system: chamomile (scentless chamomile, Matricaria inodora)
Text: as §1, §2

[4] = system: chickweed (common chickweed, Stellaria media)
Text: as §1, §2

[5] = system: deadnettle (henbit deadnettle, Lamium amplexicaule)
Text: as §1, §2

[6] = system: field poppy (Papaver rhoeas)
Text: as §1, §2

[7] = system: field violet (Viola arvensis)
Text: as §1, §2

kochia (Kochia scoparia) = system: kochia (Kochia scoparia)
Text: as §1, §2

[8] = system: mustard, wild (wild mustard, Sinapis arvensis)
Text: as §1, §2

[9] = system: oat, wild (wild oat, Avena fatua)
Text: as §1, §2

[10] = system: oilseed rape (Brassica napus)
Text: as §1, §2

[11] = system: radish, wild (wild radish, Raphanus raphanistrum)
Text: as §1, §2

[12] = system: speedwell (bird's-eye speedwell, Veronica persica)
Text: as §1, §2

[13] = system: wheat, winter (winter wheat, Triticum aestivum)
Text: as §1, §2

[14] = Postemergence, 31 g ai/ha, scale 0 to 100 (0 no effect, 100 complete control)
[15] = Postemergence, 125 g ai/ha, visual rating on scale 0 (no effect) to 100 (complete control), 14 to 21 d
[16] = Postemergence, 250 g ai/ha, scale 0 to 100 (0 no effect, 100 complete control)
[17] = Preemergence, 62 g ai/ha, scale 0 to 100 (0 no effect, 100 complete control)
[18] = Preemergence, 125 g ai/ha, scale 0 to 100 (0 no effect, 100 complete control)
[19] = Preemergence, 250 g ai/ha, scale 0 to 100, 0 no effect, 100 complete control
[20] = postemergence, 62 g ai/ha, scale 0 to 100, 0 no effect, 100 complete control

Cn1nc(Br)c(O)c(-c2cccc3ccccc23)c1=O [Compound 20]
Russian Thistle plant response rating [1, 14]: 70
Plant response rating, Russian Thistle [1, 15]: 80
Plant response rating, Russian Thistle [1, 16]: 98
Plant response rating (scale of 0 to 100), Russian Thistle ([1]; Preemergence, 31 g ai/ha): 0
Plant response rating, Russian Thistle [1, 17]: 30
Plant response rating, Russian Thistle [1, 18]: 40
Plant response rating, Russian Thistle [1, 19]: 70
Plant response rating, Russian Thistle [1, 20]: 75
Plant response rating, Barley, Spring [2, 14]: 0
Plant response rating, Barley, Spring [2, 15]: 0
Plant response rating, Barley, Spring [2, 16]: 0
Plant response rating (scale of 0 to 100), Barley, Spring ([2]; Preemergence, 31 g ai/ha): 0
Plant response rating, Barley, Spring [2, 17]: 0
Plant response rating, Barley, Spring [2, 18]: 0
Barley, Spring plant response rating [2, 19]: 0
Plant response rating, Barley, Spring [2, 20]: 0
Chamomile plant response rating [3, 14]: 70
Plant response rating, Chamomile [3, 15]: 100
Plant response rating, Chamomile [3, 16]: 100
Plant response rating, Chamomile [3, 20]: 95
Chickweed plant response rating [4, 14]: 90
Plant response rating, Chickweed [4, 15]: 100
Plant response rating, Chickweed [4, 16]: 100
Plant response rating (scale of 0 to 100), Chickweed ([4]; Preemergence, 31 g ai/ha): 85
Plant response rating, Chickweed [4, 17]: 95
Plant response rating, Chickweed [4, 18]: 95
Plant response rating, Chickweed [4, 19]: 95
Plant response rating, Chickweed [4, 20]: 100
Deadnettle plant response rating [5, 14]: 25
Plant response rating, Deadnettle [5, 15]: 55
Plant response rating, Deadnettle [5, 16]: 65
Plant response rating (scale of 0 to 100), Deadnettle ([5]; Preemergence, 31 g ai/ha): 0
Plant response rating, Deadnettle [5, 17]: 0
Plant response rating, Deadnettle [5, 18]: 10
Plant response rating, Deadnettle [5, 19]: 20
Plant response rating, Deadnettle [5, 20]: 35
Field Poppy plant response rating [6, 14]: 30
Plant response rating, Field Poppy [6, 15]: 100
Plant response rating, Field Poppy [6, 16]: 100
Plant response rating (scale of 0 to 100), Field Poppy ([6]; Preemergence, 31 g ai/ha): 70
Plant response rating, Field Poppy [6, 17]: 70
Plant response rating, Field Poppy [6, 18]: 95
Plant response rating, Field Poppy [6, 19]: 100
Plant response rating, Field Poppy [6, 20]: 60
Field Violet plant response rating [7, 14]: 5
Plant response rating, Field Violet [7, 15]: 25
Plant response rating, Field Violet [7, 16]: 45
Plant response rating (scale of 0 to 100), Field Violet ([7]; Preemergence, 31 g ai/ha): 0
Plant response rating, Field Violet [7, 17]: 15
Plant response rating, Field Violet [7, 18]: 25
Plant response rating, Field Violet [7, 19]: 75
Plant response rating, Field Violet [7, 20]: 15
Kochia plant response rating (kochia (Kochia scoparia); [14]): 35
Plant response rating, Kochia (kochia (Kochia scoparia); [15]): 85
Plant response rating, Kochia (kochia (Kochia scoparia); [16]): 100
Plant response rating (scale of 0 to 100), Kochia (kochia (Kochia scoparia); Preemergence, 31 g ai/ha): 0
Plant response rating, Kochia (kochia (Kochia scoparia); [17]): 25
Plant response rating, Kochia (kochia (Kochia scoparia); [18]): 70
Plant response rating, Kochia (kochia (Kochia scoparia); [19]): 90
Plant response rating, Kochia (kochia (Kochia scoparia); [20]): 65
Mustard, Wild plant response rating [8, 14]: 75
Plant response rating, Mustard, Wild [8, 15]: 100
Plant response rating, Mustard, Wild [8, 16]: 100
Plant response rating (scale of 0 to 100), Mustard, Wild ([8]; Preemergence, 31 g ai/ha): 25
Plant response rating, Mustard, Wild [8, 17]: 35
Plant response rating, Mustard, Wild [8, 18]: 100
Plant response rating, Mustard, Wild [8, 19]: 100
Plant response rating, Mustard, Wild [8, 20]: 100
Oat, Wild plant response rating [9, 14]: 20
Plant response rating, Oat, Wild [9, 15]: 60
Plant response rating, Oat, Wild [9, 16]: 75
Plant response rating (scale of 0 to 100), Oat, Wild ([9]; Preemergence, 31 g ai/ha): 35
Plant response rating, Oat, Wild [9, 17]: 65
Plant response rating, Oat, Wild [9, 18]: 85
Plant response rating, Oat, Wild [9, 19]: 95
Plant response rating, Oat, Wild [9, 20]: 25
Oilseed Rape plant response rating [10, 14]: 0
Plant response rating, Oilseed Rape [10, 15]: 5
Plant response rating, Oilseed Rape [10, 16]: 5
Plant response rating (scale of 0 to 100), Oilseed Rape ([10]; Preemergence, 31 g ai/ha): 0
Plant response rating, Oilseed Rape [10, 17]: 0
Plant response rating, Oilseed Rape [10, 18]: 0
Plant response rating, Oilseed Rape [10, 19]: 0
Plant response rating, Oilseed Rape [10, 20]: 0
Radish, Wild plant response rating [11, 14]: 50
Plant response rating, Radish, Wild [11, 15]: 70
Plant response rating, Radish, Wild [11, 16]: 65
Plant response rating (scale of 0 to 100), Radish, Wild ([11]; Preemergence, 31 g ai/ha): 0
Plant response rating, Radish, Wild [11, 17]: 0
Plant response rating, Radish, Wild [11, 18]: 50
Plant response rating, Radish, Wild [11, 19]: 65
Plant response rating, Radish, Wild [11, 20]: 40
Speedwell plant response rating [12, 14]: 5
Plant response rating, Speedwell [12, 15]: 100
Plant response rating, Speedwell [12, 16]: 100
Plant response rating (scale of 0 to 100), Speedwell ([12]; Preemergence, 31 g ai/ha): 70
Plant response rating, Speedwell [12, 17]: 70
Plant response rating, Speedwell [12, 18]: 70
Plant response rating, Speedwell [12, 19]: 90
Plant response rating, Speedwell [12, 20]: 15
Wheat, Winter plant response rating [13, 14]: 0
Plant response rating, Wheat, Winter [13, 15]: 15
Plant response rating, Wheat, Winter [13, 16]: 25
Plant response rating (scale of 0 to 100), Wheat, Winter ([13]; Preemergence, 31 g ai/ha): 0
Plant response rating, Wheat, Winter [13, 17]: 0
Plant response rating, Wheat, Winter [13, 18]: 15
Plant response rating, Wheat, Winter [13, 19]: 25
Plant response rating, Wheat, Winter [13, 20]: 10
